Results as given in publication PMC9246773, “Assessing the Activity of Antimicrobial Peptides Against Common Marine Bacteria Located in Rotifer (Brachionus plicatilis) Cultures” (Probiotics and Antimicrobial Proteins, 2022).
No end group written: not given here.

Experiments:
Type in all cases: cell-based
[1] = test system: Escherichia coli (ATCC 25922); settings: ATCC 25922, 48 h
Procedure: (§1) A range of bacterial species with the potential to be transferred to developing fish larvae as pathogens or probiotics were selected for use in the study (Table 2). Bacterial isolates were stored at −80 °C and thawed, and 25 µL of the isolates was spread onto marine salt agar (MSA) media. All isolates were incubated at 25 °C for 18 h to reach mid-log growth phase. All isolates were sub-cultured and identified using mass spectrometry (MALDI-TOF) using the BioTyper and MBT 8468 library (Bruker Pty Ltd). The isolate Tenacibaculum discolor was plated on Anacker and Oradal’s marine (AOM) media, incubated for 48 h and identified using the aforementioned method. Bacterial isolates were suspended in sterile saline (0.75% NaCl w/v) to 0.5 McFarland standard. […] The bacterial isolates T. discolor and Pseudoalteromonas sp. require marine salts to grow and were not added to MHB (0‰). The isolate T. discolor requires low nutrients to grow, therefore, a separate MHB (25‰) was prepared at a diluted ratio of 1 part MHB and 7 parts artificial seawater (25‰).
(§2) The protocol was followed to determine the minimum inhibitory concentration (MIC) of the selected peptides. Two MIC assays were performed, firstly to determine whether each peptide precipitated in MHB and thereby required acetic acid adjustments (supplementary materials) and secondly, to determine the antimicrobial activity of each peptide in artificial seawater (25‰). Peptide stock solutions (1.3 mg mL^−1) were made by diluting the peptides in sterile deionised water. MHB was made with deionised water to reach a concentration of approaching 0‰ and artificial sea salts (Sigma-Aldrich® S9883) to reach a salinity of 25‰.
(§3) A broth microdilution protocol was followed to test whether the AMPs precipitated in MHB. The isolates T. discolor and Pseudoalteromonas were excluded from this assay because they required marine salts for growth. The peptides HHC10 and HHC36 previously required acetic acid adjustments according to [63] and were not trialled in this assay. To test if peptides required acetic acid, each peptide was diluted 1:2 in acetic acid (0.02% acetic acid w/v, containing 0.4% BSA) solution. In a 96-well polypropylene microtitre plates (Costar® 3879), 100 µL of this peptide stock was added to the first well for each bacterial isolate tested and serially diluted 2-fold with acetic acid (0.01% acetic acid w/v, containing 0.2% BSA). From each well, 10 µL of each peptide concentration was added to the corresponding wells of a new 96-well microtitre plate. From each of the bacterial suspensions in MHB (0‰), 90 µL was added to each well. […] From each of the bacterial suspensions in MHB (0‰), 50 µL was added to each well. All peptide concentrations ranged from 0.125 - 65µg mL^-1 and the bacterial suspension in each well was approximately 5 × 10^5 CFU mL^-1. Antimicrobial peptides that have an MIC value two or more dilutions higher in the assay with no acetic acid, compared to the assay with acetic acid, require acetic acid adjustments. The 96-well plates were incubated at 25 °C and read at 24 and 48 hours. The MIC was visually determined using a Sensititre™ Vizion™ Digital MIC Viewing System (Thermo Scientific™), and the lowest AMP concentration that had no bacterial growth was recorded as the MIC after 48 hours. Each bacterium was trialled in duplicate.

Shewanella sp. [2] = settings: 48 h
Procedure: as §1, §2, §3

Vibrio alginolyticus [3] = settings: 48 h
Procedure: as §1, §2, §3

[4] = test system: Vibrio harveyi (ATCC 35084); settings: ATCC 35084, 48 h
Procedure: as §1, §2, §3

Vibrio harveyi [5] = settings: 48 h
Procedure: as §1, §2, §3

Vibrio rotiferianus [6] = settings: 48 h
Procedure: as §1, §2, §3

Vibrio scophthalmi [7] = settings: 48 h
Procedure: as §1, §2, §3

bacterial isolates [8] = settings: 48 h
Procedure: as §1, §2
Once the acetic acid requirement for each peptide was determined (Table 3), the antimicrobial activity of each peptide was tested at a salinity of 0‰ and 25‰ for all bacterial isolates. A stock solution for peptides that required acetic acid was prepared by a 1:2 dilution in acetic acid (0.02% acetic acid w/v, containing 0.4% BSA) solution. In a 96-well polypropylene microtitre plates (Costar® 3879), 100 µL of this peptide stock was added to the first well for each bacterial isolate tested and serially diluted twofold with acetic acid (0.01% acetic acid w/v, containing 0.2% BSA). From each well, 10 µL of each peptide concentration was added to the corresponding wells of a new 96-well microtitre plate. From each of the bacterial suspensions (0‰), 90 µL was added to each well. […] Twofold serial dilutions were made with MHB (0‰). From each of the bacterial suspensions (0‰), 50 µL was added to each well. The same method was followed for testing peptides in MHB at 25‰. All peptide concentrations ranged from 0.125 to 65 µg mL^−1, and the bacterial suspension in each well was approximately 5 × 10^5 CFU mL^−1. […]

[9] = test system: Escherichia coli (ATCC 25922); settings: ATCC 25922, 48 h; remark: listed apart in the source
Procedure: as §1, §2
(§4) Once the acetic acid requirement for each peptide was determined (Table 3), the antimicrobial activity of each peptide was tested at a salinity of 0‰ and 25‰ for all bacterial isolates. A stock solution for peptides that required acetic acid was prepared by a 1:2 dilution in acetic acid (0.02% acetic acid w/v, containing 0.4% BSA) solution. In a 96-well polypropylene microtitre plates (Costar® 3879), 100 µL of this peptide stock was added to the first well for each bacterial isolate tested and serially diluted twofold with acetic acid (0.01% acetic acid w/v, containing 0.2% BSA). From each well, 10 µL of each peptide concentration was added to the corresponding wells of a new 96-well microtitre plate. From each of the bacterial suspensions (0‰), 90 µL was added to each well. […] Twofold serial dilutions were made with MHB (0‰). From each of the bacterial suspensions (0‰), 50 µL was added to each well. The same method was followed for testing peptides in MHB at 25‰. All peptide concentrations ranged from 0.125 to 65 µg mL^−1, and the bacterial suspension in each well was approximately 5 × 10^5 CFU mL^−1. The different salinities were used to compare any differences in antimicrobial activity in 0‰ and 25‰ water. […] Each bacterium was trialled in duplicate.

Pseudoalteromonas sp. = settings: 48 h
Procedure: as §1, §2, §4

Shewanella sp. [10] = settings: 48 h; remark: listed apart in the source
Procedure: as §1, §2, §4

Tenacibaculum discolor = settings: 48 h
Procedure: as §1, §2, §4

Vibrio alginolyticus [11] = settings: 48 h; remark: listed apart in the source
Procedure: as §1, §2, §4

[12] = test system: Vibrio harveyi (ATCC 35084); settings: ATCC 35084, 48 h; remark: listed apart in the source
Procedure: as §1, §2, §4

Vibrio harveyi [13] = settings: 48 h; remark: listed apart in the source
Procedure: as §1, §2, §4

Vibrio rotiferianus [14] = settings: 48 h; remark: listed apart in the source
Procedure: as §1, §2, §4

Vibrio scophthalmi [15] = settings: 48 h; remark: listed apart in the source
Procedure: as §1, §2, §4

bacterial isolates [16] = settings: 48 h; remark: listed apart in the source
Procedure: as §1, §2, §4

Row | Substance | MIC E. coli ATCC 25922, Acetic [1] | MIC E. coli ATCC 25922, No acetic [1] | MIC Shewanella sp., Acetic (Shewanella sp. [2]) | MIC Shewanella sp., No acetic (Shewanella sp. [2]) | MIC E. coli ATCC 25922, salinity 0‰ [9] | MIC E. coli ATCC 25922, salinity 25‰ [9] | MIC Pseudoalteromonas sp., salinity 25‰ (Pseudoalteromonas sp.) | MIC Shewanella sp., salinity 0‰ (Shewanella sp. [10]) | MIC Shewanella sp., salinity 25‰ (Shewanella sp. [10]) | MIC T. discolor, salinity 25‰ (Tenacibaculum discolor) | MIC V. alginolyticus, salinity 0‰ (Vibrio alginolyticus [11]) | MIC V. alginolyticus, salinity 25‰ (Vibrio alginolyticus [11]) | MIC V. harveyi ATCC 35084, salinity 0‰ [12] | MIC V. harveyi ATCC 35084, salinity 25‰ [12] | MIC V. harveyi, salinity 0‰ (Vibrio harveyi [13]) | MIC V. harveyi, salinity 25‰ (Vibrio harveyi [13]) | MIC V. rotiferianus, salinity 0‰ (Vibrio rotiferianus [14]) | MIC V. rotiferianus, salinity 25‰ (Vibrio rotiferianus [14]) | MIC V. scophthalmi, salinity 0‰ (Vibrio scophthalmi [15]) | MIC V. scophthalmi, salinity 25‰ (Vibrio scophthalmi [15]) | also measured
1 | ILVRWIRWRIQW-NH2 [Peptide 3002] | 8.13 mg/L | 16.25 mg/L | 8.13 mg/L | 4.06 mg/L | 65 mg/L | > 65 mg/L | 65 mg/L | 8.13 mg/L | > 65 mg/L | 32.5 mg/L | 8.13 mg/L | > 65 mg/L | 8.13 mg/L | > 65 mg/L | 8.13 mg/L | > 65 mg/L | 8.13 mg/L | > 65 mg/L | 2.03 mg/L | > 65 mg/L | MIC V. alginolyticus, Acetic (Vibrio alginolyticus [3]): 4.06 mg/L; MIC V. alginolyticus, No acetic (Vibrio alginolyticus [3]): 2.03 mg/L; MIC V. harveyi ATCC 35084, Acetic [4]: 4.06 mg/L; MIC V. harveyi ATCC 35084, No acetic [4]: 2.03 mg/L; MIC V. harveyi, Acetic (Vibrio harveyi [5]): 4.06 mg/L; MIC V. harveyi, No acetic (Vibrio harveyi [5]): 2.03 mg/L; MIC V. rotiferianus, Acetic (Vibrio rotiferianus [6]): 4.06 mg/L; MIC V. rotiferianus, No acetic (Vibrio rotiferianus [6]): 2.03 mg/L; MIC V. scophthalmi, Acetic (Vibrio scophthalmi [7]): 1.02 mg/L; MIC V. scophthalmi, No acetic (Vibrio scophthalmi [7]): 0.51 mg/L; MIC in low salt conditions (over the bacterial isolates) (bacterial isolates [8]): 1 to 10 mg/L
2 | KKWQLLIKWKLR-NH2 [Peptide 3008] | > 65 mg/L | > 65 mg/L | 8.13 mg/L | 16.25 mg/L | 8.13 mg/L | > 65 mg/L | > 65 mg/L | 16.25 mg/L | 32.5 mg/L | > 65 mg/L | 2.03 mg/L | > 65 mg/L | 8.13 mg/L | > 65 mg/L | 4.06 mg/L | > 65 mg/L | 2.03 mg/L | > 65 mg/L | < 0.13 mg/L | 32.5 mg/L | MIC V. alginolyticus, Acetic (Vibrio alginolyticus [3]): 1.02 mg/L; MIC V. alginolyticus, No acetic (Vibrio alginolyticus [3]): 2.03 mg/L; MIC V. harveyi ATCC 35084, Acetic [4]: 16.25 mg/L; MIC V. harveyi ATCC 35084, No acetic [4]: 16.25 mg/L; MIC V. harveyi, Acetic (Vibrio harveyi [5]): 4.06 mg/L; MIC V. harveyi, No acetic (Vibrio harveyi [5]): 4.06 mg/L; MIC V. rotiferianus, Acetic (Vibrio rotiferianus [6]): 2.03 mg/L; MIC V. rotiferianus, No acetic (Vibrio rotiferianus [6]): 1.02 mg/L; MIC V. scophthalmi, Acetic (Vibrio scophthalmi [7]): 0.51 mg/L; MIC V. scophthalmi, No acetic (Vibrio scophthalmi [7]): 1.02 mg/L; MIC in artificial seawater (25‰) (over the bacterial isolates) (bacterial isolates [16]): 32.5 mg/L
3 | KRWWKWIRW-NH2 [HHC10] | – | – | – | – | 4.06 mg/L | > 65 mg/L | > 65 mg/L | 4.06 mg/L | > 65 mg/L | > 65 mg/L | 2.03 mg/L | > 65 mg/L | 4.06 mg/L | > 65 mg/L | 8.13 mg/L | > 65 mg/L | 2.03 mg/L | > 65 mg/L | 2.03 mg/L | > 65 mg/L | MIC in low salt conditions (over the bacterial isolates) (bacterial isolates [8]): 1 to 10 mg/L; MIC in artificial seawater (25‰) (over the bacterial isolates) (bacterial isolates [16]): > 65 mg/L
